Reference: US20250179028A1, “ACRYLAMIDE COMPOUNDS” (NRG THERAPEUTICS LTD, priority 2022, published 2025)
Converted amounts (≈) assume the structure as drawn.

Assays:
[1] = test system: mPTP; experiment: mPTP activity (Ca2+ retention) assay in isolated rat liver mitochondria; format: biochemical; conditions: isolated rat liver mitochondria; average value from multiple experiments (n ≥ 2)
From the text: Pharmacological inhibition or modulation of the mPTP can be measured in well characterised ‘Ca^2+ retention’ assays performed in isolated mitochondria. In vitro isolated mitochondria rapidly sequester exogenous Ca^2+ until the intramitochondrial Ca^2+ concentration reaches the threshold for mPTP activation. Once the pore is activated, mitochondrial integrity is compromised and the stored Ca^2+ is released. The distribution of Ca^2+ between extra- and intra-mitochondrial compartments can be measured in real time with the use of membrane-impermeant Ca^2+ sensitive fluorescent dyes. Depending on the configuration of the assay, inhibition or modulation of the mPTP either delays the opening of the pore or increases the concentration of Ca^2+ required to induce mPTP opening.
MPTP activity was measured in mitochondria freshly isolated from female Sprague Dawley (250 to 300 gram) rat livers using the following method. Cervical dislocation was performed on the rat. The liver was then perfused in-situ with ˜40 ml cold Dulbecco's Phosphate Buffered Saline (DPBS) prior to dissection and transferred into 30 ml Isolation Buffer (250 mM Sucrose, 10 mM KCl, 1 mM EGTA, 1 mM EDTA, 25 mM HEPES, adjusted to pH 7.5 with 1 M NaOH). Each lobe of the liver was then removed from the buffer, minced using tweezers and a scalpel into ˜5 mm pieces then transferred into a 50 ml Potterton dounce homogenization tube on ice containing 30 ml ice-cold centrifugation buffer (300 mM Trehalose, 25 mM HEPES, 1 mM EGTA, 1 mM EDTA, 10 mM KCl, adjusted to pH 7.5 with 1 M NaOH and supplemented with 0.1% bovine serum albumin (BSA) and complete protease inhibitor cocktail (one tablet of inhibitor per 50 mls of buffer). Homogenisation was carried out using a teflon pestle at 1800 rpm. The slurry was centrifuged at 800 g for 10 min at 4° C., then the supernatant centrifuged at 10,000 g for 10 min. The pellet was washed once with FLIPR assay buffer (75 mM Mannitol, 25 mM Sucrose, 5 mM Potassium Phosphate Monobasic, 20 mM Tris base, 100 mM KCl, 0.1% BSA adjusted to pH 7.4 with 5M HCl) centrifuged again, then resuspended in FLIPR assay buffer to a concentration of 8.8 mg/ml protein.
Tested compounds (10 mM stock in DMSO) were serially diluted in DMSO in half log steps to generate 10 test concentrations (final concentrations in assay 30 μM to 1 nM). An intermediate dilution of 5 μl DMSO samples into 247 μl FLIPR assay buffer was carried out prior to transfer of 5 μl into duplicate wells of a 384 well polypropylene assay plate. Control wells were 0.5% (v/v) DMSO and 5 μM cyclosporin A.
A stock mitochondria/Fluo5N assay solution was prepared in 5.6 ml FLIPR assay buffer (at RT) supplemented with succinate disodium salt (10 mM), rotenone (1 μM), Fluo5N pentapotassium salt (2 μM) and 1 ml mitochondria suspension, then transferred (15 μl) into the assay plate containing test compounds and incubated for 10 min at RT. Assay plates were then transferred to a FLIPR Tetra plate reader (Molecular Devices). Dye fluorescence was then measured every 3 sec for a total of 10 min. After 12 sec, a 2.5 μl bolus of CaCl2 (75 μM) was added from a source plate containing 675 μM CaCl2 in FLIPR assay buffer. IC50 values for tested compounds were calculated using the fluorescence value collected at the 10 min timepoint with % inhibition calculated using the DMSO control and cyclosporin A values as […] respectively.

[2] = target: CYP2D6 (Homo sapiens (Human), UniProt P10635); experiment: Cytochrome P450 CYP2D6 inhibition in human liver microsomes; format: in vitro ADME; conditions: probe dextromethorphan 2 µM (dextrorphan formation); 1 uM test compound, human liver microsomes; average value from two experiments; negative values = no effective inhibition
Procedure: Studies to assess tested compound mediated inhibition of cytochrome P450 enzyme isoform CYP2D6 were performed using human liver microsomes (BD Gentest) using either a single concentration (1 μM) of test compound or concentration response (0.1, 0.3, 1, 3, 10 and 30 μM) to derive an IC50. Tested compound solutions were prepared from 10 mM stocks in DMSO and diluted to 200 μM in DMSO. Reactions were prepared in a 96 deep well plate by combining 1 μl test compound with 179 μl reaction mixture (100 mM phosphate buffered saline (PBS), 0.2 mg/mL microsomes and 2 μM Dextromethorphan prepared from stocks as detailed below).
The positive control inhibitor, quinidine, was used at a final concentration of 0.5 μM when used at a single concentration. The final concentrations of quinidine used to derive an IC50 were 0, 0.1, 0.3, 1, 3, 10 and 30 μM. Plates were warmed at 37° C. for 15 min before starting reactions with 20 μl 10 mM NADPH solution in PBS and incubated for 20 min at 37° C. The assay is performed in duplicate. Reactions were quenched with 200 μl cold acetonitrile containing internal standards (200 nM labetalol, 200 nM alprazolam and 100 nM tolbutamide). The plate was centrifuged at 4000 rpm for 30 minutes, placed on ice for 20 minutes and then centrifuged at 4000 rpm for 30 minutes again to precipitate protein. 100 μL of the supernatant was transferred to a new plate and diluted with 100 μL pure water before being analysed using UPLC/MS/MS. The products of the transformation for dextromethorphan to dextrorphan was monitored by UPLC-MS/MS. The inhibition of CYP2D6 in human liver microsomes was measured as the percentage decrease in the activity of dextrorphan formation compared to non-inhibited controls (=100% activity). The IC50 value was calculated (test compound concentration which produces 50% inhibition) by using Excel Xlfit.

[3] = PBS and FaSSIF solubility; format: physicochemical; conditions: aqueous buffer, kinetic from dmso stock; PBS pH 7.4, 2 hr at 25° C.; read-out: Solubility PBS (pH 7.4)
Procedure: Test compounds were prepared as 10 mM stocks in DMSO and 15 μl samples transferred in duplicate into 1.5 mL glass flat bottom vials (BioTech Solutions). Fasted state simulated intestinal fluid (FaSSIF) or PBS (pH 7.4) was added to each vial to final volume of 500 μl. One PTFE encapsulated stir stick (V&P Scientific) was placed in each vial before sealing with PTFE/SIL plugs (BioTech Solutions). Vials were shaken at 1100 rpm for 2 hr at 25° C. Samples were then filtered through MultiScreen Solvinert filter plates (Millipore) via vacuum filtration. Aliquots of filtrate (5 μl) plus 5 μl DMSO were diluted in 490 μl 50% acetonitrile in water containing internal standard. The filtrate was analysed and quantified against a standard of known concentration using LC-MS/MS. Solubility values of the test compound and control compound were calculated as follows: […]

[4] = Hepatocyte clearance assay, rat; format: in vitro ADME; conditions: cryopreserved primary hepatocytes, average value from two experiments, read-out: Rat heps Clint
Procedure: In vitro clearance studies were performed in primary rat and human hepatocytes (BiolVT). Vials of cryopreserved rat or human hepatocytes were thawed in a 37° C. water bath for 2 min. Cells were transferred into thawing medium (Williams' Medium E containing 30% Percoll, 1×GlutaMAX-1, 15 mM HEPES, 5% fetal bovine serum (FBS), 4 μg/ml insulin, 1 μM dexamethasone), centrifuged at 100 g for 10 min then resuspended in culture medium (Leibovitz's L-15 Medium) at a concentration of 0.5×10^6 viable cells/mL (number of viable cells assessed using AO/PI staining). Hepatocytes (198 μL) were transferred into wells of a 96-well non-coated plate and placed in a 37° C. incubator for 10 min. Test compound solutions were prepared from 10 mM stocks in DMSO, diluted to 100 μM in 50% (v/v in water) acetonitrile. Test compound samples (2 μl) were added to each well of hepatocytes and incubated at 37° C. Samples (25 μl) were collected at t=0, 15, 30, […] and 120 min, mixed with 6 volumes (150 μl) of acetonitrile containing internal standard (100 nM alprazolam, 200 nM caffeine and 100 nM tolbutamide), vortexed for 5 min and centrifuged for 45 min at 3220 g. An aliquot of supernatant (100 μL) was diluted with 100 μL ultra-pure water, and the mixture was used for LC/MS/MS analysis. All incubations were performed in duplicate. Peak areas were determined from extracted ion chromatograms. The slope value, k, was determined by linear regression of the natural logarithm of the remaining percentage of the parent drug vs. incubation time curve. The in vitro half-life (in vitro t½) was determined from the slope value: in vitro t½=0.693/k. Conversion of the in vitro t½ (in min) into the in vitro intrinsic clearance (in vitro CLint, in μL/min/1×10^6 cells) was done using the following equation (mean of duplicate determinations):
[formula] • V=incubation volume (0.2 mL) • N=number of hepatocytes per well (0.1×10^6 cells).

Sequence of CYP2D6 (P10635 whole entry, canonical isoform): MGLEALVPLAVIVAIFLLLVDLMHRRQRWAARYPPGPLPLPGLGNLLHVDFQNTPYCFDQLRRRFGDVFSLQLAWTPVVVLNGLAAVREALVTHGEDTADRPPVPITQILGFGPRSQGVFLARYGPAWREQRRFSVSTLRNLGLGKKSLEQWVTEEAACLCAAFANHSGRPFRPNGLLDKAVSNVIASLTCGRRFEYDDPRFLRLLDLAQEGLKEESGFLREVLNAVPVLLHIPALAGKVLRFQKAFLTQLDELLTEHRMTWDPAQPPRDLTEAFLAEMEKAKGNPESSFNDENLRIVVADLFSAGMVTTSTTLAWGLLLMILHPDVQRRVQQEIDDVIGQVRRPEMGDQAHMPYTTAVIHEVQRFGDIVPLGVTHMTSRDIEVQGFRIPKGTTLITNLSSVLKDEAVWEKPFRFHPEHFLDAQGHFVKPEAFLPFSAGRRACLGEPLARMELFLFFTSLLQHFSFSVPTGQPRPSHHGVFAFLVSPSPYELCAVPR

mPTP Rat liver pIC50 [1] | inhibition at 20 min, 1 µM [2] [%] | solubility at 2 h [3] [µM] | hepatocyte CLint at 1 µM [4] [µL/min/1e6 cells] | SMILES
6.9 | -0.28 | 0.03 (≈ 0.0107 µg/mL) |  | CC(C)c1ccc(Cl)cc1NC(=O)/C=C/c1ccc2oc(=O)[nH]c2c1 [Example 15, (E)-N-(5-chloro-2-isopropylphenyl)-3-(2-oxo-2,3-dihydrobenzo[d]oxazol-5-yl)acrylamide]
7.4 | -2.59 | 0.6 (≈ 0.197 µg/mL) |  | Cc1c(Cl)cccc1NC(=O)/C=C/c1ccc2oc(=O)[nH]c2c1 [Example 9, (E)-N-(3-chloro-2-methylphenyl)-3-(2-oxo-2,3-dihydrobenzo[d]oxazol-5-yl)acrylamide]
 | 1.91 | 0.15 (≈ 0.0468 µg/mL) |  | Cc1ccc(F)cc1NC(=O)/C=C/c1ccc2oc(=O)[nH]c2c1 [Example 17, (E)-N-(5-fluoro-2-methylphenyl)-3-(2-oxo-2,3-dihydrobenzo[d]oxazol-5-yl)acrylamide]
6.4 | -1.87 | 1.75 (≈ 0.592 µg/mL) |  | Cc1c(F)cccc1NC(=O)/C=C/c1ccc2c(c1)NC(=O)C2(C)C [Example 3, (E)-3-(3,3-dimethyl-2-oxoindolin-6-yl)-N-(3-fluoro-2-methylphenyl)acrylamide]
5.9 | 6.34 |  |  | Cc1c(Cl)cccc1N(C)C(=O)/C=C/c1ccc2oc(=O)[nH]c2c1 [Example 48, (E)-N-(3-chloro-2-methylphenyl)-N-methyl-3-(2-oxo-2,3-dihydrobenzo[d]oxazol-5-yl)acrylamide]
6.5 | -0.52 | 16 (≈ 5.38 µg/mL) |  | Cc1cccc(C(C)C)c1NC(=O)/C=C/c1ccc2oc(=O)[nH]c2c1 [Example 14, (E)-N-(2-isopropyl-6-methylphenyl)-3-(2-oxo-2,3-dihydrobenzo[d]oxazol-5-yl)acrylamide]
7.5 | 3.83 |  |  | Cc1n[nH]c2cc(/C=C/C(=O)Nc3cccc4cnn(C)c34)ccc12 [Example 39, (E)-3-(3-methyl-1H-indazol-6-yl)-N-(1-methyl-1H-indazol-7-yl)acrylamide]
6.8 | 1.72 |  |  | Cc1cc(F)c(F)cc1NC(=O)/C=C/c1ccc2oc(=O)[nH]c2c1 [Example 16, (E)-N-(4,5-difluoro-2-methylphenyl)-3-(2-oxo-2,3-dihydrobenzo[d]oxazol-5-yl)acrylamide]
6.1 | -0.63 |  |  | O=C(/C=C/c1ccc2oc(=O)[nH]c2c1)NC1CCc2ccccc21 (stereo not shown) [Example 11, (E)-N-(2,3-dihydro-1H-inden-1-yl)-3-(2-oxo-2,3-dihydrobenzo[d]oxazol-5-yl)acrylamide]
7.2 | 7.3 |  |  | Cc1n[nH]c2cc(/C=C/C(=O)NC3c4ccccc4CC3C)ccc12 (stereo not shown) [Example 38, (E)-3-(3-methyl-1H-indazol-6-yl)-N-(2-methyl-2,3-dihydro-1H-inden-1-yl)acrylamide]
6.3 | -0.55 |  |  | O=C(/C=C/c1ccc2c(C3CC3)n[nH]c2c1)NC1CCc2ccccc21 (stereo not shown) [Example 33, (E)-3-(3-cyclopropyl-1H-indazol-6-yl)-N-(2,3-dihydro-1H-inden-1-yl)acrylamide]
6.5 | 2.89 | 0.31 (≈ 0.104 µg/mL) |  | Cc1c(F)cccc1NC(=O)/C=C/c1ccc2c(c1)NC(=O)C21CC1 [Example 4, (E)-N-(3-fluoro-2-methylphenyl)-3-(2′-oxospiro[cyclopropane-1,3′-indolin]-6′-yl)acrylamide]
 | 8.27 |  | 73.6 | O=C(/C=C/c1ccc2c(C(F)(F)F)n[nH]c2c1)NC1CCc2ccccc21 (stereo not shown) [Example 28, (E)-N-(2,3-dihydro-1H-inden-1-yl)-3-(3-(trifluoromethyl)-1H-indazol-6-yl) acrylamide]
6.0 | 3.84 | 5.3 (≈ 1.71 µg/mL) |  | CC(C)c1ccccc1NC(=O)/C=C/c1ccc2oc(=O)[nH]c2c1 [Example 13, (E)-N-(2-isopropylphenyl)-3-(2-oxo-2,3-dihydrobenzo[d]oxazol-5-yl)acrylamide]
